Assay results reported in ChEMBL document CHEMBL1140238, “Synthesis of selective SRPK-1 inhibitors: novel tricyclic quinoxaline derivatives” (Bioorg Med Chem Lett, 2005).

Experiments:
[1] = Partition coefficient (logP); type: physicochemical; conditions: octanol/water
[2] = target: Ribosomal protein S6 kinase (P70S6K) (Homo sapiens) (UniProt Q9UBS0+P23443); assay: In vitro percent inhibition of Ribosomal protein S6 kinase at 10 uM concentration of compound dissolved in 100% DMSO using 5''-[gamma-33P]-triphosphate; type: protein-complex assay
[3] = target: T1, Inhibitor of nuclear factor kappa-B kinase subunit beta (Homo sapiens) (UniProt O14920); assay: In vitro percent inhibition of I-kappa-B-kinase beta at 10 uM concentration of compound dissolved in 100% DMSO using 5''-[gamma-33P]-triphosphate
T1 sequence (whole entry): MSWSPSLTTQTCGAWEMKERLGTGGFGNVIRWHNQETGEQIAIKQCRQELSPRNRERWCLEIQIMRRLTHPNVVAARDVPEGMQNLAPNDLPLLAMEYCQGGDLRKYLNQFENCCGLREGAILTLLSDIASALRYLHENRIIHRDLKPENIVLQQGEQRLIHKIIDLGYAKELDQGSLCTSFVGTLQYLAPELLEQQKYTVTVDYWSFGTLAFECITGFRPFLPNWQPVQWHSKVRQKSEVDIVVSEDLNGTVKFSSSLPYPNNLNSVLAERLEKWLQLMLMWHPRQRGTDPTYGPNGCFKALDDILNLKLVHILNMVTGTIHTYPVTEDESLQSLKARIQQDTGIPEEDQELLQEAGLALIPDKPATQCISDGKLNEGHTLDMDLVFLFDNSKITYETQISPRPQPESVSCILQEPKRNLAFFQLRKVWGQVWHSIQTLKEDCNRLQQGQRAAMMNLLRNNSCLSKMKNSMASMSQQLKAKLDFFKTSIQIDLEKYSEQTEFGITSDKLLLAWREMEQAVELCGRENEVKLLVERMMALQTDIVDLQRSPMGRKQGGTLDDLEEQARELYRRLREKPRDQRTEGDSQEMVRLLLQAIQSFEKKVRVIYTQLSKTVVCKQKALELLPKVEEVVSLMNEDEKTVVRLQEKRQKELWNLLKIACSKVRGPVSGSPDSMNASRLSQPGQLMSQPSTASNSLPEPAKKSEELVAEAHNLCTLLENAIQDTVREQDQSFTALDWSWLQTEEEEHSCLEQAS

[4] = target: T2, Tyrosine-protein kinase transforming protein Abl (Abelson murine leukemia virus) (UniProt P00521); assay: In vitro percent inhibition of v-Abl tyrosine kinase at 10 uM concentration of compound dissolved in 100% DMSO using 5''-[gamma-33P]-triphosphate
T2 sequence (whole entry): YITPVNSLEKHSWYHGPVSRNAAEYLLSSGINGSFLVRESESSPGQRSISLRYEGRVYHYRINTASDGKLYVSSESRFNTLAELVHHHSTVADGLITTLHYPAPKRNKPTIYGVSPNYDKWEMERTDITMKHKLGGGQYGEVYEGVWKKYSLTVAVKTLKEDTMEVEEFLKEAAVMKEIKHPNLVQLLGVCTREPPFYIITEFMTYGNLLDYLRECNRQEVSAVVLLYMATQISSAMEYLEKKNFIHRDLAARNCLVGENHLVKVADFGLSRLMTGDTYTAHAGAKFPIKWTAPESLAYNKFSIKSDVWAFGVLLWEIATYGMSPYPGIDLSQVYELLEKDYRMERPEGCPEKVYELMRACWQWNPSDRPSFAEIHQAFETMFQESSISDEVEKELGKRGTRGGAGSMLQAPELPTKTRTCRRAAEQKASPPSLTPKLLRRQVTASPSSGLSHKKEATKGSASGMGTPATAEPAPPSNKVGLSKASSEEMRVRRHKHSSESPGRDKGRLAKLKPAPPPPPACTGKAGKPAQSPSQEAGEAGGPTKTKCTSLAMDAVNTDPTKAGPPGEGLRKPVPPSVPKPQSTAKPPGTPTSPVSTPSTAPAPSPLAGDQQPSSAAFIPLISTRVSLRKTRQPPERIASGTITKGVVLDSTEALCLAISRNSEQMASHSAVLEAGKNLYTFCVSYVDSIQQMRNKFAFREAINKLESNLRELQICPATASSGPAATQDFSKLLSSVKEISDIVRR

[5] = target: Casein kinase I isoform alpha (Homo sapiens) (UniProt P48729); assay: In vitro percent inhibition of Casein kinase 1 alpha at 10 uM concentration of compound dissolved in 100% DMSO using 5''-[gamma-33P]-triphosphate
[6] = target: Tyrosine-protein kinase Lck (Homo sapiens) (UniProt P06239); assay: In vitro percent inhibition of p56 Lck tyrosine kinase at 10 uM concentration of compound dissolved in 100% DMSO using 5''-[gamma-33P]-triphosphate
[7] = target: Platelet-derived growth factor receptor beta (Homo sapiens) (UniProt P09619); assay: In vitro percent inhibition of Platelet-derived growth factor receptor, beta polypeptide at 10 uM concentration of compound dissolved in 100% DMSO using 5''-[gamma-33P]-triphosphate
Chain of Platelet-derived growth factor receptor beta (Homo sapiens) (P09619 whole entry): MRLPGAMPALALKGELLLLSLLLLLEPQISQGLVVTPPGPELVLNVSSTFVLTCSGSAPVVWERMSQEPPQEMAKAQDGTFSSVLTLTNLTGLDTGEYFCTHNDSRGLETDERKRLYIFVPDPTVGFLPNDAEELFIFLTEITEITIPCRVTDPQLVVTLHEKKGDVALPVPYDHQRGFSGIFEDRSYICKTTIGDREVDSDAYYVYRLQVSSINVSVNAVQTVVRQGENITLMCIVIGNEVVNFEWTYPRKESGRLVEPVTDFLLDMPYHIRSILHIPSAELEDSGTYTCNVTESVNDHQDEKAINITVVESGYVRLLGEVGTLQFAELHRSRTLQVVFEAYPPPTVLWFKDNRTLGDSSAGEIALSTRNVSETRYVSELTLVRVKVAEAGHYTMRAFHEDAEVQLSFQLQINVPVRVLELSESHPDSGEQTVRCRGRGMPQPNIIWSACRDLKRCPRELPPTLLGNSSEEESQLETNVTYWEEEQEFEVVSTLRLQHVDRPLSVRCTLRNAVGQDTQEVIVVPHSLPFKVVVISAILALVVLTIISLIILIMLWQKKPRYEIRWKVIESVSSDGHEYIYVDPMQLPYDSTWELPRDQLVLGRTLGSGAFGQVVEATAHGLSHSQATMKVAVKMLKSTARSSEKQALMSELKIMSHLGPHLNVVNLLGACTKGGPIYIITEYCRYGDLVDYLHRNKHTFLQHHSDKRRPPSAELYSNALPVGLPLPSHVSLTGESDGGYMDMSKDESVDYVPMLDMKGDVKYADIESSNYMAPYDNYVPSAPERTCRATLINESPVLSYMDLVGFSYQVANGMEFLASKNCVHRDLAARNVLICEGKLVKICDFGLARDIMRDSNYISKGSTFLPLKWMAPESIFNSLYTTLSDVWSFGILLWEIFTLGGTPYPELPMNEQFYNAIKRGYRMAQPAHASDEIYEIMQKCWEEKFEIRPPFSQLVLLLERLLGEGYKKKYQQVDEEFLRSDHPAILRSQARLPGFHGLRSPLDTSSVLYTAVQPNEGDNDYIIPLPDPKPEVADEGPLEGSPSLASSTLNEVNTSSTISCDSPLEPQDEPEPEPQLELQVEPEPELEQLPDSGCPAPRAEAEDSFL

[8] = target: Hepatocyte growth factor receptor (Homo sapiens) (UniProt P08581); assay: In vitro percent inhibition of Met proto-oncogene tyrosine kinase at 10 uM concentration of compound dissolved in 100% DMSO using 5''-[gamma-33P]-triphosphate
[9] = target: RAF proto-oncogene serine/threonine-protein kinase (Homo sapiens) (UniProt P04049); assay: In vitro percent inhibition of RAF proto-oncogene serine/threonine-protein kinase at 10 uM concentration of compound dissolved in 100% DMSO using 5''-[gamma-33P]-triphosphate
[10] = target: Mast/stem cell growth factor receptor Kit (Homo sapiens) (UniProt P10721); assay: In vitro percent inhibition of v-kit Hardy-Zuckerman 4 feline sarcoma viral oncogene homolog at 10 uM concentration of compound dissolved in 100% DMSO using 5''-[gamma-33P]-triphosphate
[11] = In vitro percent inhibition of Cyclin-dependent kinase 2-cyclin A at 10 uM concentration of compound dissolved in 100% DMSO using 5''-[gamma-33P]-triphosphate
[12] = target: Rho-associated protein kinase 2 (Homo sapiens) (UniProt O75116); assay: In vitro percent inhibition of Protein kinase ROCK2 at 10 uM concentration of compound dissolved in 100% DMSO using 5''-[gamma-33P]-triphosphate
Chain of Rho-associated protein kinase 2 (Homo sapiens) (O75116 whole entry, looked up): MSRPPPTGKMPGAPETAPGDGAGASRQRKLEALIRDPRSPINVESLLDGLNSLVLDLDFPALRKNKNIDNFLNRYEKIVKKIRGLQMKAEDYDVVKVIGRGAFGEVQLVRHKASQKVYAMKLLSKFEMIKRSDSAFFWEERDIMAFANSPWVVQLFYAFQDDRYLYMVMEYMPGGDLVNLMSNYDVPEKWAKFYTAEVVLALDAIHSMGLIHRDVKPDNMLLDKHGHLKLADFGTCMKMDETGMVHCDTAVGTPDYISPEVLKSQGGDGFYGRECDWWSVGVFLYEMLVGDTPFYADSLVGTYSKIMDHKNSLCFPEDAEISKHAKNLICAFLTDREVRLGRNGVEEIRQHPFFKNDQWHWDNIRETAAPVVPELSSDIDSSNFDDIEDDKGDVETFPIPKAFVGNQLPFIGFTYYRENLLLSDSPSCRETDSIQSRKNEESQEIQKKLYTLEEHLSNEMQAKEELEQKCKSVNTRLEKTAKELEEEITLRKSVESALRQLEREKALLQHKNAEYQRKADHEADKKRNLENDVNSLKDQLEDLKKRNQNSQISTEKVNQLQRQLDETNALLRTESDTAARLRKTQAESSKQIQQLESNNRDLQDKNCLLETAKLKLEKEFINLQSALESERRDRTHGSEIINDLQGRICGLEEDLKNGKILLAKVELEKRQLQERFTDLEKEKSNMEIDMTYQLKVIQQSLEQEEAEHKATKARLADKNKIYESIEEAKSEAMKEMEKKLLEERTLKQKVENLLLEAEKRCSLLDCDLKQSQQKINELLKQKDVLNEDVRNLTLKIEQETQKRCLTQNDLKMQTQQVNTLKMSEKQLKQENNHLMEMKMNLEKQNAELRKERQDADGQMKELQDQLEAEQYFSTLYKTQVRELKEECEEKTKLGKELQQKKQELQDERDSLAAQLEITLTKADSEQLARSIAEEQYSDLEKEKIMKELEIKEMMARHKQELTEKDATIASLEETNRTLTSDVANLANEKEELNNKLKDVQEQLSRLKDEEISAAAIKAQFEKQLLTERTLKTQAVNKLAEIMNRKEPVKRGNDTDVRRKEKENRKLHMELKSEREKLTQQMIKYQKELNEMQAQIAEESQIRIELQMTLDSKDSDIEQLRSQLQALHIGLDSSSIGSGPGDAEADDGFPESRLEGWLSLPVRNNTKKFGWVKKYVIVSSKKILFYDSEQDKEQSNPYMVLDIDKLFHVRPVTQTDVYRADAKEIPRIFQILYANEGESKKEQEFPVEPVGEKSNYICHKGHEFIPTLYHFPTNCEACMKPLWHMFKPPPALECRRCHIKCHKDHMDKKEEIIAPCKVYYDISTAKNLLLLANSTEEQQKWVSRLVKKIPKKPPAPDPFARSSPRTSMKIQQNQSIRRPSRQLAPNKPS

[13] = target: Epidermal growth factor receptor (Homo sapiens) (UniProt P00533); conditions: 10 uM
Chain of Epidermal growth factor receptor (Homo sapiens) (P00533 whole entry): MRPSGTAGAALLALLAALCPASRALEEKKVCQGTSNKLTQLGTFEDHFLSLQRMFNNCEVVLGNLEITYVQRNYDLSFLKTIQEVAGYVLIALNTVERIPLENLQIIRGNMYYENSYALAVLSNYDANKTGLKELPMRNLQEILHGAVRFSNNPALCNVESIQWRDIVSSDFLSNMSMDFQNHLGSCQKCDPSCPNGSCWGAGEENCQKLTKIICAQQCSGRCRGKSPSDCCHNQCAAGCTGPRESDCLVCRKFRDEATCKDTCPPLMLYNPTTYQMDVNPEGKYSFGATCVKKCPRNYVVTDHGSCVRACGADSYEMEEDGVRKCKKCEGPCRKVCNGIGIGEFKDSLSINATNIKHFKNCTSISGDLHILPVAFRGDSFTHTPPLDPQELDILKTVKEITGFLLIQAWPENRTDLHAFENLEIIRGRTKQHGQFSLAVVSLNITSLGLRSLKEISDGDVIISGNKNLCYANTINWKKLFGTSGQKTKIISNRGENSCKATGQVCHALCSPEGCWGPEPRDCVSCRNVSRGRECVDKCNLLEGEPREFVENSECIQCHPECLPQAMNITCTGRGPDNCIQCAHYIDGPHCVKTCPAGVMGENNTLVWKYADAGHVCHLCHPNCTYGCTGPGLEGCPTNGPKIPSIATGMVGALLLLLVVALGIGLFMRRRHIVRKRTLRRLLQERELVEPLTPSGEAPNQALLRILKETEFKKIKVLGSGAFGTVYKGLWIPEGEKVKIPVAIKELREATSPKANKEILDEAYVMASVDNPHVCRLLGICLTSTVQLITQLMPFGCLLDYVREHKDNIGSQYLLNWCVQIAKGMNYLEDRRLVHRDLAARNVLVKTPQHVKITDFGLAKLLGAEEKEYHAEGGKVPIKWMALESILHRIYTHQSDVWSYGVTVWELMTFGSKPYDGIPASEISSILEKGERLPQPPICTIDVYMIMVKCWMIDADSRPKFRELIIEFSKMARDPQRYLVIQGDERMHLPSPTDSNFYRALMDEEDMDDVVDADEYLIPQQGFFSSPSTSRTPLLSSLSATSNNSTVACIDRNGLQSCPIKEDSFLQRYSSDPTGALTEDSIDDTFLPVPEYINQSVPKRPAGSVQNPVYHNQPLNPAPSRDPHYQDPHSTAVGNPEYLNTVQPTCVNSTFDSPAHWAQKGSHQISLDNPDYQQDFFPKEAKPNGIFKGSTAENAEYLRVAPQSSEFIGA

[14] = target: Proto-oncogene tyrosine-protein kinase Src (Homo sapiens) (UniProt P12931); assay: In vitro percent inhibition of c-Src tyrosine kinase at 10 uM concentration of compound dissolved in 100% DMSO using 5''-[gamma-33P]-triphosphate
Chain of Proto-oncogene tyrosine-protein kinase Src (Homo sapiens) (P12931 2-536 limits assumed): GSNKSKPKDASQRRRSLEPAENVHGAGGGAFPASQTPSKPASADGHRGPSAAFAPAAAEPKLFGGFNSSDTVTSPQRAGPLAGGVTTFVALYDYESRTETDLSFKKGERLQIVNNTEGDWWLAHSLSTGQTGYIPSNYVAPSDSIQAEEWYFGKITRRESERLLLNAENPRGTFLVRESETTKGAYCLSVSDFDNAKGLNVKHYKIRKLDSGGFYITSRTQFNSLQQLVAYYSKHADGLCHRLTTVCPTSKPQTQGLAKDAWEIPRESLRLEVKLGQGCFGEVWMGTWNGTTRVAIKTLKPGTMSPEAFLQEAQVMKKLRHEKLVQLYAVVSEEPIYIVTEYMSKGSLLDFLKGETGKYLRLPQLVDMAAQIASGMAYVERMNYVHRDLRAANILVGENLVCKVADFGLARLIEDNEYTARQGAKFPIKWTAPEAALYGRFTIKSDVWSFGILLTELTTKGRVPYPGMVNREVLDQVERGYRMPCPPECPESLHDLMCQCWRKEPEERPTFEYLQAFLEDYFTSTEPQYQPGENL

[15] = target: Mitogen-activated protein kinase 3 (Homo sapiens) (UniProt P27361); assay: In vitro percent inhibition of Mitogen-activated protein kinase 3 at 10 uM concentration of compound dissolved in 100% DMSO using 5''-[gamma-33P]-triphosphate
Chain of Mitogen-activated protein kinase 3 (Homo sapiens) (P27361 whole entry): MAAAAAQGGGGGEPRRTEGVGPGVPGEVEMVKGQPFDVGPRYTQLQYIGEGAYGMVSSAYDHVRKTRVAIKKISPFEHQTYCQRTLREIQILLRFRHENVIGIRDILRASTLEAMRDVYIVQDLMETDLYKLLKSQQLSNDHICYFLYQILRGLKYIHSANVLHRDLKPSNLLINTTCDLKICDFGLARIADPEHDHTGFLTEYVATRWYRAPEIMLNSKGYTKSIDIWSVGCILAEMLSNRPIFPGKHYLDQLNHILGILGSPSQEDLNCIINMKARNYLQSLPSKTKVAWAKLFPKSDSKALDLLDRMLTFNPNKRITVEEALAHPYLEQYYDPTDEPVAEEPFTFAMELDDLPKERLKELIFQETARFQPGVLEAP

[16] = In vitro percent inhibition of Ribosomal S6 kinase 1 at 10 uM concentration of compound dissolved in 100% DMSO using 5''-[gamma-33P]-triphosphate
[17] = target: RAC-alpha serine/threonine-protein kinase (Homo sapiens) (UniProt P31749); assay: In vitro percent inhibition of Protein kinase B, alpha at 10 uM concentration of compound dissolved in 100% DMSO using 5''-[gamma-33P]-triphosphate
Chain of RAC-alpha serine/threonine-protein kinase (Homo sapiens) (P31749 whole entry): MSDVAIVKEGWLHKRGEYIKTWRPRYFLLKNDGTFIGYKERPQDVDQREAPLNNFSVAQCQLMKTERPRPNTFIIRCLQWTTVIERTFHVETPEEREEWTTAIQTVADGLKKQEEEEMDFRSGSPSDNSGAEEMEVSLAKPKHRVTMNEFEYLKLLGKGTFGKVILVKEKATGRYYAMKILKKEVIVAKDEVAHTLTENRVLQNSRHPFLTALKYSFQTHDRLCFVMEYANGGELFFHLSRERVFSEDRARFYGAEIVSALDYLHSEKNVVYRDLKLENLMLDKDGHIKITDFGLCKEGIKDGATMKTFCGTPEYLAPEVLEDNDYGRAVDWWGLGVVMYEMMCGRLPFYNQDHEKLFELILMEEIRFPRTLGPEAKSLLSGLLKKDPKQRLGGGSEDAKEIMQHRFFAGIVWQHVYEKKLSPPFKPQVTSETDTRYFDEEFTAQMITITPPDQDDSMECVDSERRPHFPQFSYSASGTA

[18] = target: Insulin receptor (Homo sapiens) (UniProt P06213); assay: In vitro percent inhibition of Insulin receptor at 10 uM concentration of compound dissolved in 100% DMSO using 5''-[gamma-33P]-triphosphate
[19] = target: Glycogen synthase kinase-3 beta (Homo sapiens) (UniProt P49841); assay: In vitro percent inhibition of Glycogen synthase kinase 3 beta at 10 uM concentration of compound dissolved in 100% DMSO using 5''-[gamma-33P]-triphosphate
[20] = target: Mitogen-activated protein kinase 8 (Homo sapiens) (UniProt P45983); assay: In vitro percent inhibition of c-Jun N-terminal kinase 1-alpha 1 at 10 uM concentration of compound dissolved in 100% DMSO using 5''-[gamma-33P]-triphosphate

| Structure (SMILES) | logP [1] | inhibition [2] | inhibition [3] | inhibition [4] | inhibition [5] | inhibition [6] | inhibition [7] | inhibition [8] | inhibition [9] | inhibition [10] | inhibition [11] | inhibition [12] | inhibition [13] | inhibition [14] | inhibition [15] | inhibition [16] | inhibition [17] | inhibition [18] | inhibition [19] | inhibition [20] |
| --- | --- | --- | --- | --- | --- | --- | --- | --- | --- | --- | --- | --- | --- | --- | --- | --- | --- | --- | --- | --- |
| COC(=O)Cc1ccc(-c2nc3cc4ccccc4cc3nc2-c2ccc(CC(=O)OC)s2)s1 | 4.95 |  |  |  |  |  |  |  |  |  |  |  |  |  |  |  |  |  |  |  |
| COc1cc2nc(-c3cccs3)c(-c3cccs3)nc2cc1OC | 4 | -9% | 10% | -2% | -1% | 9% | 7% | -3% | 11% | -6% | -5% | 2% | 10% | 10% | 10% | 15% | -6% | -7% |  |  |
| CCCCC(=O)c1ccccc1 [VALEROPHENONE] | 3.26 |  |  |  |  |  |  |  |  |  |  |  |  |  |  |  |  |  |  |  |
| O=C(O)C1COc2cc3nc(-c4cccs4)c(-c4cccs4)nc3cc2O1 (configuration not stated) | 4.7 | -1% | 14% | -6% | 15% | -2% | 5% | -2% | 12% | 4% | 10% | -1% | 39% | 19% | 39% | 14% | 4% |  | 33% |  |
| c1ccc2[nH]cnc2c1 [BENZIMIDAZOLE] | 1.55 |  |  |  |  |  |  |  |  |  |  |  |  |  |  |  |  |  |  |  |
| COC(=O)Cc1csc(-c2nc3cc4ccccc4cc3nc2-c2cc(CC(=O)OC)cs2)c1 | 5 | -5% | 14% | -10% | 3% | 4% | 9% | -2% | 17% | 1% | -4% | 4% | 11% | 8% | 11% | 13% | 1% |  | 2% | -10% |
| COc1cc2nc3nc(-c4cccs4)c(-c4cccs4)nc3nc2cc1OC | 4.79 | -2% | 10% | -1% | 2% | -7% | 5% | 12% | 8% | -4% | 27% | -1% | 20% | 9% | 20% | 48% | -4% | -7% | 4% |  |
| c1ccc(-c2nnn[nH]2)cc1 | 1.42 |  |  |  |  |  |  |  |  |  |  |  |  |  |  |  |  |  |  |  |
| O=C(O)Cc1csc(-c2nc3cc4ccccc4cc3nc2-c2cc(CC(=O)O)cs2)c1 | 4.11 | 10% | 37% | -7% | 18% | 8% | 22% | 21% | 40% | 17% | -5% | 18% | 54% | 29% | 54% | 27% | 17% |  | 22% |  |
| Cn1c(=O)c2[nH]cnc2n(C)c1=O [THEOPHYLLINE] | -0.05 |  |  |  |  |  |  |  |  |  |  |  |  |  |  |  |  |  |  |  |
| O=C(O)CCCc1ccc(-c2nc3cc4ccccc4cc3nc2-c2ccc(CCCC(=O)O)s2)s1 | 4.77 | 18% | 43% |  | 24% | 9% | 37% | 7% | 12% | 33% | 7% | 0% | 32% | 35% | 6% | 20% |  |  | 13% |  |
| COc1cc2c(c(OC)c1OC)-c1ccc(OC)c(=O)cc1[C@@H](NC(C)=O)CC2 [COLCHICINE] | 0.92 |  |  |  |  |  |  |  |  |  |  |  |  |  |  |  |  |  |  |  |
| CCCC(=O)c1ccccc1 [BUTYROPHENONE] | 2.73 |  |  |  |  |  |  |  |  |  |  |  |  |  |  |  |  |  |  |  |
| Cn1c(=O)c2[nH]c(-c3ccccc3)nc2n(C)c1=O [8-PHENYL THEOPHYLLINE] | 2.05 |  |  |  |  |  |  |  |  |  |  |  |  |  |  |  |  |  |  |  |
| O=C(O)c1ccc(-c2nc3cc4ccccc4cc3nc2-c2ccc(C(=O)O)s2)s1 | 5.03 | 14% | 29% |  | 7% |  | 23% | -4% | 16% | 12% | 3% | 19% | 49% | 20% | 49% | 31% | 12% |  | 51% |  |
| CCC(=O)c1ccccc1 [PROPIOPHENONE] | 2.2 |  |  |  |  |  |  |  |  |  |  |  |  |  |  |  |  |  |  |  |
| COC(=O)CCc1ccc(-c2nc3cc4ccccc4cc3nc2-c2ccc(CCC(=O)OC)s2)s1 | 5 | 11% | 31% | -8% | 14% | 5% | 13% | 39% | 18% | 12% | 12% | 5% | 32% | 19% | 13% | 31% | 14% |  | 7% | -10% |
